Laboratory results taken from patent US20110190249A1, “THERAPEUTIC METHODS AND USES OF SAPOGENINS AND THEIR DERIVATIVES” (PHYTOPHARM PLC, priority 2002, published 2011).
Marks after values point to notes of the source that are not given here.

Columns and labels:
[1] = tested on: aged Sprague-Dawley rats; test: Y-maze learning and memory test in aged rats; format: in vivo, rat; conditions: 18 mg kg−1 day−1 oral in food, 3 months
Procedure: (§1) Aged Sprague-Dawley rats aged were divided into different groups, one control and groups treated for 2-3 months with either sarsasapogenin, episarsasapogenin cathylate or smilagenin (18 mg kg^−1 day^−1, n=10). A control group (n=14) of untreated young rats was also included in the study. The daily dose of drug was mixed in a minimum amount of food and was administered every morning separately to each rat.
A Y-maze apparatus was used for the learning and memory test. On the floor of each arm of the Y-maze is an array of copper rods to which electric current is applied whenever needed, with adjustable voltage. Each arm is 45 cm long and has a 15 W lamp at the end, which is turned on when needed. After 3 months drug administration, each rat was trained for 7 consecutive days, as follows. For each training session, the rat was put into one arm of the Y-maze, after two minutes rest, an electrical current was applied to the copper rods and the lamp of the clockwise arm was illuminated to indicate the non-stimulation area. If the rat went into that arm, one correct response was recorded, otherwise, one wrong response was recorded: This stimulation-response test was repeated 20 times each day, with a pause of 5 sec between each two consecutive tests. The number of correct responses following the twenty tests on the seventh day was used to express learning ability, (the higher the number the better the learning ability). The rats were then left resting for 30 days and the procedure was repeated once more. The number of correct responses of the 20 tests after the 30 day rest period was used to represent the memory ability

[2] = tested on: muscarinic acetylcholine receptor; test: Brain muscarinic acetylcholine receptor density in aged rats (dual-site competitive ligand binding); format: in vivo, rat; conditions: 18 mg kg−1 day−1 oral, 2-3 months
Procedure: as §1
Muscarinic acetylcholine receptor density in the brain was measured. Tissue was prepared as follows: brains were removed quickly after decapitation, frozen in dry ice, and transferred to a freezer. The brains were homogenised and the pellet was finally suspended in buffer.
The dual-site competitive ligand binding assay was used to measure muscarinic acetylcholine receptor density.

[3] = tested on: muscarinic acetylcholine receptor; test: Brain M receptor density (3H-QNB) in amyloid β + ibotenic acid rat model; format: in vivo; conditions: 18 mg/kg/day gastric tube, two months; model 713 ± 48, control 859 ± 101
Procedure: (§2) An in vivo model of Alzheimer's disease was used to model neurodegeneration. In this model the neurotoxic agents (amyloid β and ibotenic acid) are injected into the brain of the rat. This leads to neuronal loss, receptor loss and cognitive impairment. […] In addition the co-injection of amyloid β with a small amount of ibotenic acid into the rat hippocampus synergistically produces neuronal loss with infiltration of glial cells not only adjacent but also far from the injected site (Morimoto et al., 1998: Neuroscience, 84, 479-487).
(§3) Our studies used the method of Morimoto (Morimoto et al., 1998: Neuroscience, 84, 479-487) with some modifications (unilateral instead of bilateral injection). Three months old, Sprague Dawley rats, were randomly divided into different groups. Injection of amyloid β1-40 and ibotenic acid (both from Sigma) was accomplished by means of a stereotaxic instrument (Stoelting Co.) and the coordinates were AP=−0.5 mm […], L=−2.8 mm […], H=−7.0 mm (ventral to dura). The dose for each rat was amyloid β1-40 (4 μg) and ibotenic acid (1 μg) in 1 μl of saline. The injection was completed in 20 min, and the needle was withdrawn 10 min later. Then the skin was sutured.
(§4) The 8 groups were: • Operated control injected with normal saline (control) • Model (control injected with amyloid β+ibotenic acid) • Model+Episarsasapogenin cathylate (18 mg/kg/day)* • Model+Sarsasapogenin cathylate (18 mg/kg/day)* • Model+Episarsasapogenin ethylsuccinate (18 mg/kg/day) (comparison) • Model+Episarsasapogenin (18 mg/kg/day)* • Model+Epismilagenin (18 mg/kg/day)* • Model+Diosgenin (i.e. negative control, 18 mg/kg/day)
(§5) Episarsasapogenin cathylate, sarsasapogenin cathylate, episarsasapogenin ethylsuccinate (comparison compound), episarsasapogenin, epismilagenin and diosgenin (all at a dosage of 18 mg/kg/day) were administered to animals as stable suspensions in CMC—Na (0.5%) once daily through a gastric tube. The control and the model group were given the same volume of CMC—Na (0.5%) once daily. The drugs and vehicles were given for a period of two months, starting 20 days before operation.
Muscarinic acetylcholine receptor density was assessed. The brain samples were homogenised, centrifuged, and the pellet of centrifugation at 27000×g was re-homogenised and used for measurement. The concentration of ^3H-QNB was chosen at the saturation range. After incubation and separation, the bound portion was measured by liquid scintillation counter.

[4] = tested on: Sprague Dawley rats injected with amyloid β1-40 and ibotenic acid; test: Step-through test in amyloid β + ibotenic acid rat model; format: in vivo; conditions: 18 mg/kg/day gastric tube, two months; errors in 5 min; model 4.00 ± 2.40, control 0.60 ± 0.70
Procedure: as §2, §3, §4, §5
Step-Through Test: learning and memory. The effect of test compounds on learning and memory was assessed using the step-through test. A 60×15×15 cm box, divided into 2 equally sized rooms, one dark room with copper rod base, which was electrically charged (40 V ac) when in use, while the other was a light room but not electrically charged. Between the two rooms there is an opening (hole) for the rat to go through. The experiment is carried out for each rat on two consecutive days. The first day is for training; when the rat is adapted in the box for the first 3 min, then put in the light room, with its back toward the hole, and the copper rods of the dark room are charged for 5 min. The second day is for testing, when the number of crosses in 5 min are recorded. Improvements in memory are signalled by a reduction in the number of crosses.

[5] = tested on: rat primary cortical neurones; test: Prevention of glutamate-induced neurodegeneration (LDH release), pre-treatment; format: cell-based; conditions: 30 nM, given 24 h before glutamate; LDH 24 h after glutamate; control = 100
Procedure: The objective of this study was to examine the effects of sarsasapogenin, episarsasapogenin cathylate, episarsasapogenin, epismilagenin and smilagenin on the survival of rat primary cortical neurones exposed to glutamate, which is known to induce neuro degeneration.
Rat cortical neurones were cultured for 10 days; at day 10 the medium was changed to a serum-free defined medium. On day 12, 24 hours before glutamate exposure, cultures were washed and medium was replaced with fresh medium containing positive control (β-oestradiol), test compounds (sarsasapogenin, episarsasapogenin cathylate, episarsasapogenin, epismilagenin and smilagenin) or vehicle control (DMSO, 0.25%) or diosgenin as negative control.
On day 13, cultures were exposed to glutamate. After the incubation period, the cultures were washed with and placed in fresh medium, supplemented with relevant compounds or vehicle to evaluate their protective effects, 24 h after glutamate exposure.
(§6) Neuronal cell survival was evaluated by measuring lactate dehydrogenase (LDH) activity released in the media 24 h after test compound treatment or glutamate+test compound exposure, using the CytoTox 96 non-radioactive kit and quantitated by measuring wavelength absorbance at 450 nm.

[6] = tested on: dopamine (D) 1 receptor; test: Dopamine D1 receptor density in aged rats; format: in vivo, rat; conditions: aged rats treated 3 months; aged untreated 129.2±36.8, young 157.5±33.2
Procedure: as §1
(§7) By contrast, smilagenin and sarsasapogenin treatment in aged rats for 3 months restored the D1 and D2 receptor density (smilagenin 177±10.9; 217±45.7 fmol/mg protein; sarsasapogenin 172.0±44.0; 206.4±60.5 respectively).

[7] = tested on: rat mesencephalic dopaminergic neurones; test: Treatment of dopaminergic neurones after MPP+ exposure (survival, neurites); format: cell-based; conditions: MPP+ 2 μM
Source text: Smilagenin and sarsasapogenin also reverse the neurodegeneration caused by exposure to the neurotoxin 1-methyl-4-phenylpyridinium (MPP^+) in rat mesencephalic dopaminergic neurones; a model of Parkinson's disease in vitro.
Glial cell line-derived neurotrophic factor (GDNF) and brain-derived neurotrophic factor (BDNF), molecules that are involved in neuronal growth, and 17β-oestradiol were used as positive controls. Treatment with smilagenin and sarsasapogenin produced a significant increase in the neuronal survival compared to neurones exposed to MPP^+ alone (Table 8).
Exposure to MPP^+ caused not only a significant decrease in dopaminergic number but also in the percentage of neurites.

[8] = tested on: rat mesencephalic dopaminergic neurones; test: Pre-treatment of dopaminergic neurones before MPP+ exposure (neuronal survival); format: cell-based; conditions: pre-treatment 30 nM; MPP+ 2 μM; MPP+ alone 55 ± 3
Source text: Smilagenin and sarsasapogenin prevent the neurodegeneration caused by exposure to the neurotoxin, 1-methyl-4-phenylpyridinium (MPP^+) in rat mesencephalic dopaminergic neurones; a model of Parkinson's disease in vitro.
Glial cell line-derived neurotrophic factor (GDNF) and brain-derived neurotrophic factor (BDNF), molecules that are involved in neuronal growth, were used as positive controls.

[9] = tested on: rat primary cortical neurones; test: Reversal of glutamate-induced neurodegeneration (LDH), treatment after glutamate exposure; format: cell-based; conditions: LDH after 24 h, control = 100
Procedure: as §6
As above mentioned, exposure of rat primary cortical cultures to glutamate (100 μM; 10 min) caused an increase in lactate dehydrogenase (LDH) activity measured after 24 h, indicating a significant neurodegeneration.

[10] = tested on: progressive motor neuropathy (pmn) mice; test: Survival and behaviour of pmn mice (Charcot-Marie-Tooth model); format: in vivo; conditions: pmn mouse
Source text: Amyotrophic lateral sclerosis (ALS) is a progressive fatal neurodegenerative disorder that causes motor neurone degeneration, […], paralysis and death. The cause of this disease is heterogeneous: mutations in the Cu/Zn superoxide dismutase (SOD-1) gene is responsible for some forms of human ALS. Animal models of this disease include the SOD-1 transgenic mice over-expressing SOD-1 gene and the progressive motor neuropathy (pmn, a model of Charcot-Marie-Tooth) mice.

[11] = tested on: rat primary cortical neurones; test: Neurite outgrowth in rat primary cortical neurones; format: cell-based; conditions: for Number of neurones displaying neurites, Mean ± s.e.m (%): control 47 ± 2; for Neurite length measured using optical micrometry, Mean ± s.e.m (%): control 100 ± 4
Source text: Neurodegenerative disorders are characterised by a progressive loss of neurones and degradation of neuronal processes (neurites). Agents that induce neurite outgrowth may promote the formation of new connections between neurones and ameliorate the symptoms of neurodegenerative conditions (Katzman et al, Faseb J., 5, 278-286, 1991).

[12] = tested on: rat primary spinal motor neurones; test: Glutamate-induced neurodegeneration in spinal motor neurones (LDH); format: cell-based; conditions: control 100 ± 1
Procedure: The objective of this study was to examine the effects of sarsasapogenin and smilagenin on the survival of rat primary spinal motor neurones exposed to glutamate, which is known to induce neurodegeneration in this model of motor neurodegeneration.
Rat motor neurones were prepared according to the method described by (Martinou et al, Neuron, 8, 737-744, 1992). On day 10, medium was removed and the cultures were exposed to glutamate (4 microM) for 10 min at 37° C. in defined medium. After the glutamate exposure, cultures were washed with Dulbecco modified Eagle medium at 37° C. then placed in fresh culture medium containing test compounds. After 48 h, the extent of spinal motor neurone degeneration was determined by measuring the amount of lactate dehydrogenase (LDH) released into the culture medium as above.

[13] = tested on: BDNF; test: BDNF levels in aged rats; format: in vivo, rat; conditions: aged rats treated 3 months; aged untreated 1.205±0.219, young 1.647±0.277
Procedure: as §1

[14] = tested on: dopamine (D) 2 receptor; test: Dopamine D2 receptor density in aged rats; format: in vivo, rat; conditions: aged rats treated 3 months; aged untreated 153.8±40.5, young 200.6±50.9
Procedure: as §1, §7

CCOC(=O)O[C@@H]1CC[C@@]2(C)[C@H](CC[C@@H]3[C@@H]2CC[C@]2(C)[C@@H]4[C@H](C[C@@H]32)O[C@]2(CC[C@H](C)CO2)[C@H]4C)C1 [episarsasapogenin cathylate] was tested, and the “Learning and memory ability (Y-maze)” value [1] was “restored the learning and memory ability”, the “Muscarinic acetylcholine receptor density in brain” value [2] was “significantly restored” and the M receptor density [3] was 877 ± 89* fmol/mg/protein. The “Learning and memory Step through test Error No” value [4] was 1.36 ± 0.92* and the “Prevention of glutamate-induced neurodegeneration, Mean ± s.e.m (%)” value [5] was 74 ± 3%.
For C[C@H]1CC[C@@]2(OC1)O[C@H]1C[C@H]3[C@@H]4CC[C@@H]5C[C@@H](O)CC[C@]5(C)[C@H]4CC[C@]3(C)[C@H]1[C@@H]2C [sarsasapogenin], the D1 receptor density [6] was 172.0±44.0 fmol/mg protein, the “Learning and memory ability (Y-maze)” value [1] was “restored the learning and memory ability” and the “Percentage of neurites in dopaminergic neurones after MPP+ exposure, Mean ± s.e.m (%)” value ([7]; 0.03 nM, control 41 ± 4, MPP+ alone 27 ± 5) was 43 ± 4%. The “Dopaminergic neurones after MPP+ exposure (survival), Mean ± s.e.m (%)” value ([7]; treatment 0.03 nM, MPP+ alone 76 ± 4) was 112 ± 6%, the “Muscarinic acetylcholine receptor density in brain” value [2] was “significantly restored” and the “Dopaminergic neurones after MPP+ exposure (survival), Mean ± s.e.m (%)” value [8] was 89 ± 3%. The “Cortical neurones previously exposed to glutamate, Mean ± s.e.m (%)” value ([9]; 3 nM after glutamate 100 μM 10 min) was 101 ± 3%, the “Cortical neurones previously exposed to glutamate, Mean ± s.e.m (%)” value ([9]; 30 nM after glutamate 100 μM 10 min) was 112 ± 1% and the “Prevention of glutamate-induced neurodegeneration, Mean ± s.e.m (%)” value [5] was 79 ± 3%. The Behavioural deficits ([10]; oral administration) was “improve the behavioural deficits”, the “Lifespan (survival)” value ([10]; oral administration (FIG. 6)) was “increase the lifespan” and the “Number of neurones displaying neurites, Mean ± s.e.m (%)” value (from here on “Number … (%)”) ([11]; 0.3 pM) was 55 ± 2%. For the same compound, the “Neurite length measured using optical micrometry, Mean ± s.e.m (%)” value (“Neurite length measured … (%)” for short) ([11]; 0.3 pM) was 177 ± 5%, the “Number … (%)” value ([11]; 3 pM) was 61 ± 1% and the “Neurite length measured … (%)” value ([11]; 3 pM) was 197 ± 5%. The “Number … (%)” value ([11]; 30 pM) was 62 ± 2%, the “Neurite length measured … (%)” value ([11]; 30 pM) was 211 ± 6% and the “Glutamate-induced neurodegeneration in spinal motor neurones, Mean ± s.e.m (%)” value ([12]; 0.03 nM for 48 h after glutamate 4 microM 10 min) was 123 ± 2%. For the same compound, the “Glutamate-induced neurodegeneration in spinal motor neurones, Mean ± s.e.m (%)” value ([12]; 3 nM for 48 h after glutamate 4 microM 10 min) was 137 ± 1%, the “Glutamate-induced neurodegeneration in spinal motor neurones, Mean ± s.e.m (%)” value ([12]; 300 nM for 48 h after glutamate 4 microM 10 min) was 136 ± 6% and the BDNF levels [13] was 1.410±0.232 ng/g tissue. For the same compound, the D2 receptor density [14] was 206.4±60.5 fmol/mg protein.
